SMILES strings stand for the structures.

This assay relates to rat mixed cerebral cell culture. The assay can be described thus: Neutralizing effect on LPS-induced cytotoxicity in a rat mixed cerebral cell culture system (LIC assay), MTT method. The class given is cell-based. The following applies: concentration giving a recovery rate of 50%, usually 4-5 days incubation, read-out: ED50 (the source's name). On the procedure: Neutralizing effect on lipopolysaccharide (LPS)--induced cytotoxicity in a rat mixed cerebral cell culture system (LIC assay)
LPS, a substance known to activate glial cells (astrocytes, microglia), was added to a rat mixed cerebral cell culture system and the compounds which would neutralize the cytotoxicity induced by LPS were screened by the following method.
(1) Neonatal rat mixed cerebral cell culture
From neonatal Crj:CD (SD) rats (1-3 days old, Charles-River Japan, Ltd.), the brains were isolated and placed in ice-cold D-MEM/10% FCS (Dulbecco's cell culture minimal essential medium supplemented with 10% of fetal calf serum, 100 units/ml of penicillin and 100 μg/ml of streptomycin). Then, mixed cerebral cell cultures were carried out in the following steps.
1. The cerebrums were separated from the enucleated brains and the meninges was removed under the stereoscopic microscope.
2. The cerebrums were placed in a nylon-mesh (100-200 μm) bag to filter with the aid of a rubber policeman.
3. Using ice-cold D-MEM/10% FCS, the cells were washed 3 times (1000 rpm, 8 min.). Then, this cell suspension was filtered through a cell strainer (40 μm mesh, Falcon 2340) and the number of viable cells was counted by the trypan blue method.
4. The cells, were seeded in wells of a 96-well microtiter plate (Nunc) at a cell density of 1×10^5 cells/100 μl/well, and started a cell culture at 37° C.
5. One week later, 100 μl/well of D-MEM/10% FCS was added.
6. The plate was further incubated for about 1-2 weeks and the neutralizing activity of the test compound was evaluated by the following method.
(2) Evaluation of neutralizing activity in LPS-induced cytotoxicity
1. Following the rat mixed cerebral cell culture described in (1) (after 2-3 weeks of incubation), the medium was discarded from the respective wells of the 96-well microtiter plate, and 50 μl/well of fresh D-MEM/2% FCS was added.
2. A test sample and LPS (Difco, E. coli 011: B4, Bacto) of a suitable concentration, 25 μl each per well, were respectively added. D-MEM/2% FCS was used as the medium.
As the test sample, each of the compounds shown in Table 32 was dissolved in DMSO at a concentration of 10 ^-2 M and the solution was diluted with D-MEM/2% FCS and submitted for assay.
3. After a suitable period (usually 4-5 days) of incubation, the degree of cytotoxic effect was assessed by the microscopic observation, and MTT method.
(3) MTT [3-(4,5-dimethylthiazol-2-yl)-2,5-diphenyltetra zolium bromide] method
Ten μl of MTT solution (5 mg/ml, Sigma) dissolved in phosphate-buffered saline was added to each well. After 4-6 hours of incubation (37° C., under 10% CO2), 100 μl/well of 0.01N-hydrochloric acid containing 10% SDS was added, whereby the formed formazan was dissolved. After complete dissolution, the absorbance (540-590 nm) was measured for each well.
The ED50 values were determined by calculating the recovery rates by means of the following equation and plotting the concentrations of compounds giving a recovery rate of 50% on graph paper.
Recovery rate (%)=(C-B)×100/(A-B)
[A: the absorbance at 550 nm of the control well to which only the medium had been added
B: the absorbance at 550 nm of the well to which LPS had been added
C: the absorbance at 550 nm of the well to which both LPS and the test compound had been added]
A general note: Tetrazolium assays rely on reduction of a dye to a coloured formazan, in cell work by metabolically active cells.
In the case of `CCC(=O)ONC(=O)CCCCCC(C#N)c1cccc2ccccc12` (centres unmarked) [Compound 7-8, O-propionyl-7-cyano-7-(1-naphthyl)heptanohydroxamic acid], the EC50 came to 30 nM.

On to `O=C(CCCCCc1ccc2ccccc2n1)NOC(=O)c1ccccc1` [Compound 7-16, O-benzoyl-6-(2-quinolyl)hexanohydroxamic acid], for which the EC50 was 300 nM.

In the case of `COc1ccc(C(CCCCC(=O)NOC(C)=O)C2=C(C)C(=O)c3ccccc3C2=O)cc1` (centres unmarked) [Compound 7-1, O-Acetyl-6-(4-methoxyphenyl)-6-(3-methyl-1,4-naphthoquinon-2-yl)hexanohydroxamic acid], the EC50 was found to be 50 nM.

For `CCC(=O)ONC(=O)CCCCC(C1=C(C)C(=O)c2ccccc2C1=O)c1ccc(OC)cc1` (centres unmarked) [Compound 7-6, O-propionyl-6-(4-methoxyphenyl)-6-(3-methyl-1,4-naphthoquinon-2-yl)hexanohydroxamic acid], the EC50 was determined as 50 nM.

As for `CCC(=O)ONC(=O)CCCCCC(C1=C(C)C(=O)C(C)=C(C)C1=O)c1ccccc1` (centres unmarked) [Compound 7-5, O-propionyl-7-(3,5,6-trimethylbenzoquinon-2-yl)-7-phenylheptanohydroxamic acid], the EC50 is 50 nM.

Regarding `COc1ccc(C(CCCCC(=O)NOC(=O)C(C)C)C2=C(C)C(=O)c3ccccc3C2=O)cc1` (centres unmarked) [Compound 7-10, O-isobutyryl-6-(4-methoxyphenyl)-6-(3-methyl-1,4-naphthoquinon-2-yl)hexanohydroxamic acid], the EC50 amounted to 300 nM.

`N#CC(CCCCC(=O)NOC(=O)c1ccccc1)c1cccc2ccccc12` (centres unmarked) [Compound 7-13, O-benzoyl-6-cyano-6-(1-naphthyl)hexanohyroxamic acid]: the EC50 amounted to 50 nM.

As for `CC(=O)ONC(=O)CCCCCC(C1=C(C)C(=O)C(C)=C(C)C1=O)c1ccccc1` (centres unmarked) [Compound 7-2, O-acetyl-7-(3,5,6-trimethylbenzoquinon-2-yl)-7-phenylheptanohydroxamic acid], the EC50 was found to be 50 nM.

As to `CC(=O)ONC(=O)CCCCCCc1ccc2ccccc2c1O` [Compound 7-3, O-acetyl-7-(1-hydroxy-2-naphthyl)heptano-hydroxamic acid], the EC50 worked out at 400 nM.

`CC1=C(C)C(=O)C(C(CCCCCC(=O)NO)c2ccc(C)cc2)=C(C)C1=O` (centres unmarked) [Compound D, 7-(3,5,6-Trimethyl-1,4-benzoquinon-2-yl)-7-(4-methylphenyl)heptanohydroxamic acid]: the EC50 amounted to 100 nM.

For `CC1=C(C)C(=O)C(C(CCCCCC(=O)NOC(=O)CC(C)C)c2ccccc2)=C(C)C1=O` (centres unmarked) [Compound 7-9, O-isovaleryl-7-(3,5,6-trimethylbenzoquinon-2-yl)-7-phenylheptanohydroxamicacid], the EC50 amounted to 200 nM.

Take `CC1=C(C(CCCCC(=O)NO)c2ccc(F)cc2)C(=O)c2ccccc2C1=O` (centres unmarked) [Compound B, 6-(4-Fluorophenyl)-6-(3-methyl-1,4-naphtho-quinon-2-yl)hexanohydroxamic acid]: the EC50 stood at 500 nM.

Regarding `O=C(CCCCCCc1ccc2ccccc2n1)NO` [Compound 1-3, 7-(2-quinolyl)heptanohydroxamic acid], the EC50 stood at 20 nM.

With `N#CC(CCCCCC(=O)NO)c1cccc2ccccc12` (centres unmarked) [Compound 3-2, 7-Cyano-7-(1-naphthyl)heptanohydroxamic acid], the EC50 stood at 30 nM.

On to `COc1ccc(C(CCCCC(=O)NOC(=O)c2ccccc2)C2=C(C)C(=O)c3ccccc3C2=O)cc1` (centres unmarked) [Compound 7-14, O-benzoyl-6-(4-me-Ehoxyphenyl)-6-(3-methyl-1,4-naphthoquinon-2-yl)hexanohydroxamic acid], for which the EC50 was determined as 200 nM.

On to `CC(=O)ONC(=O)CCCCCc1ccc2ccccc2n1` [Compound 7-4, O-acetyl-6-(2-quinolyl)hexanohydroxamic acid], for which the EC50 was determined as 400 nM.

In the case of `CC1=C(C)C(=O)C(C(CCCCCC(=O)NO)c2ccccc2)=C(C)C1=O` (centres unmarked) [Compound C, 7-(3,5,6-Trimethyl-1,4-benzoquinon-2-yl)-7-phenylheptanohydroxamic acid], the EC50 worked out at 300 nM.

With `CCC(=O)ONC(=O)CCCCCc1ccc2ccccc2n1` [Compound 7-7, O-propionyl-6-(2-quinolyl)hexanohydroxamic acid], the EC50 is 500 nM.

In the case of `CC1=C(C)C(=O)C(C(CCCCCC(=O)NOC(=O)C(C)(C)C)c2ccccc2)=C(C)C1=O` (centres unmarked) [Compound 7-17, O-pivaloyl-7-(3,5,6-trimethylbenzoquinon-2-yl)-7-phenylheptanohydroxamic acid], the EC50 was determined as 200 nM.

Consider `CC1=C(C)C(=O)C(C(CCCCCC(=O)NOC(=O)c2ccccc2)c2ccccc2)=C(C)C1=O` (centres unmarked) [Compound 7-15, O-benzoyl-7-(3,5,6-trimethylbenzoquinon-2-yl)-7-phenylheptanohydroxamic acid], for which the EC50 is 500 nM.

Take `O=C(CCCCCC(c1ccccc1)c1ccc2ccccc2c1O)NO` (centres unmarked) [Reference Example 46-1, 7-(1-Hydroxy-2-naphthyl)-7-phenylheptanohydroxamic acid]: the EC50 was 50 nM.

As for `CC1=C(C)C(=O)C(C(CCCCCC(=O)NO)c2ccc(F)cc2)=C(C)C1=O` (centres unmarked) [Compound E, 7-(4-Fluorophenyl)-7-(3,5,6-trimethyl-1,4-benzoquinon-2-yl)heptanohydroxamic acid], the EC50 was 600 nM.

For `CC1=C(C)C(=O)C(C(CCCCCC(=O)NOC(=O)C(C)C)c2ccccc2)=C(C)C1=O` (centres unmarked) [Compound 7-11, O-isobutyryl-7-(3,5,6-trimethylbenzoquinon-2-yl)-7-phenylheptanohydroxamicacid], the EC50 worked out at 200 nM.

In the case of `N#CC(CCCCCC(=O)NOC(=O)c1ccccc1)c1cccc2ccccc12` (centres unmarked) [Compound 7-12, O-benzoyl-7-cyano-7-(1-naphthyl)heptano-hydroxamic acid], the EC50 was 30 nM.

In the case of `O=C(CCCCCc1ccc2ccccc2c1O)NO` [Reference Example 46-2, 6-(1-Hydroxy-2-naphthyl)hexanohydroxamic acid], the EC50 was determined as 500 nM.

In the case of `O=C(CCCC/C=C\c1ccc2ccccc2n1)NO` [Compound 1-4, (Z)-7-(2-quinolyl)-6-heptenohydroxamic acid], the EC50 was found to be 40 nM.

These data come from patent US5804601A, “Aromatic hydroxamic acid compounds, their production and use” (Takeda Chemical Industries, Ltd., priority 1995, dated 1998).
